Each structure is given as a SMILES string. Values after ≈ are worked out from the molar mass of the structure shown. Counter-ions that a name gives are not always drawn.

The subject of data set [1] is Antibody (RS2708). In words: Competitive ELISA for NBOMe based compounds (Example 13), HRP tracer vs calibrator/cross-reactant. The class given is binding, sheep. Particulars: for % CR: relative to 25I-NBOMe.HCl; for % Cross-reactivity: IC50 25I-NBOMe.HCL/IC50 CR×100. The protocol:
IgG was extracted from the antisera using ammonium sulphate/caprylic acid precipitation and the purified antibody was immobilised on a 96 well ELISA plate at 5 μg/ml in 10 mM TRIS buffer, pH 8.5 overnight at 4° C. […] The plate was washed (×3) with TBST and the calibrator (25I-NBOMe.HCL) or potential cross reactants added (50 μl per well), followed by HRP tracer (75 μl/well) to the appropriate wells. The plates were then incubated for 60 minutes at 25° C. […] 125 μL of signal (TMB) was then added to each well for 20 mins at room temperature in the dark. The reaction was stopped by the addition of 125 μl of 0.2 M Sulphuric Acid per well and the plates read immediately at 450 nm. Calibration curves were generated and these were used to determine the sensitivity and specificity of the immunoassay for 25I-NBOMe-HCL and potential cross-reactants. The data are inputted to a computer program called ‘KC Junior’ (Biotek). It gives a 4 parameter fit curve and allows the calculation of concentrations between the standard runs. This program is used to calculate the IC50 values by dividing the 0 ng/ml optical density (OD) value by 2 and obtaining the concentration value from the curve for this OD. The results of this study are presented in Tables 1-3, cross-reactivity being calculated according to the following formula: % CR=IC50 25I-NBOMe.HCL/IC50 CR×100
Wherein % CR is the percentage cross-reactivity, IC50 25I-NBOMe HCL is the concentration of 25I-NBOMe-HCL which causes 50% displacement of signal and IC50 CR is the concentration of potential cross-reactant that causes 50% displacement of signal.
In general terms: ELISA stands for enzyme-linked immunosorbent assay.

The conditions of data set [2]: recreational drug use; cited from earlier work.
For data set [3] the following is noted: case study of 25I-NBOMe use; cited from earlier work.
[4] abbreviates: Table 2, antibody coated at 5 μg/ml, HRP tracer at 1/64K.

With `CCc1cc(OC)c(CCN)cc1OC` [Compound 2C-E], in data set [1] (Table 4, samples @ 100 ng/ml), the B/Bo turned out to be 92.2, the IC50 was over 100 and the “% CR” value was under 0.16%.

Consider `CCCSc1cc(OC)c(CCNCc2ccccc2OC)cc1OC` [25T7-NBOMe•HCl], for which the “% Cross-reactivity” value in data set [1] (Table 2) worked out at 118%. In addition, in data set [1] (setting [4]), the “IC50” value turned out to be 0.139 ng/mL.

Consider `COc1cc(CCN)c(OC)cc1Br` [Compound 2C-B], for which, in data set [1] (Table 4, samples @ 100 ng/ml), the B/Bo was determined as 89.9, the IC50 is given as over 100 and the “% CR” value is under 0.16%.

Consider `COc1cc(CCNCc2ccccc2OC)c(OC)cc1C` [25D-NBOMe•HCl, 2-(2,5-Dimethoxy-4-methylphenyl)-N-[(2-methoxyphenyl)methyl]ethanamine], for which the “% Cross-reactivity” value in data set [1] (Table 2) was found to be 157.7%. The “IC50” value in data set [1] (setting [4]) is 0.104 ng/mL.

As to `COc1cc(SC(C)C)c(OC)cc1CCNCc1ccccc1OC` [25T4-NBOMe•HCl], in data set [1] (Table 2), the “% Cross-reactivity” value came to 118%. In addition, the “IC50” value in data set [1] (setting [4]) was found to be 0.139 ng/mL.

In the case of `COc1cc(CCNCc2ccccc2OC)c(OC)cc1Br` [25B-NBOMe•HCl, 2-(4-Bromo-2,5-dimethoxyphenyl)-N-[(2-methoxyphenyl)methyl]ethanamine], the “% Cross-reactivity” value in data set [1] (Table 2) is listed as 118.8%. In addition, in data set [1] (setting [4]), the “IC50” value came to 0.138 ng/mL.

With `COc1cc(CCNCc2ccccc2OC)c(OC)cc1I` [25I-NBOMe•HCl, 2-(4-Iodo-2,5-dimethoxyphenyl)-N-[(2-methoxyphenyl)methyl] ethanamine], the B/Bo came out at 90.2 in data set [1] (Conc. 0.03125 ng/ml, 0 ng/ml = 100.0); 80.2 in data set [1] (Conc. 0.0625 ng/ml, 0 ng/ml = 100.0); 61.3 in data set [1] (Conc. 0.125 ng/ml, 0 ng/ml = 100.0); 33.4 in data set [1] (Conc. 0.25 ng/ml, 0 ng/ml = 100.0); 14.7 in data set [1] (Conc. 0.5 ng/ml, 0 ng/ml = 100.0); 7.6 in data set [1] (Conc. 1 ng/ml, 0 ng/ml = 100.0). The same compound came in with a B/Bo in data set [1] (Conc. 2 ng/ml, 0 ng/ml = 100.0) of 5.3. For the same compound, the IC50 in data set [1] (Table 1, antibody coated at 5 μg/ml, HRP tracer at 1/64K) worked out at 0.164 ng/mL; in data set [1] (setting [4]), 0.164 ng/mL. Further, in data set [1] (Table 2), the “% Cross-reactivity” value is recorded as 100%.

For `COc1ccc(OC)c(CCNCc2ccccc2OC)c1` [25H-NBOMe•HCl, 2-(2,5-dimethoxyphenyl)-N-(2-methoxybenzyl)ethanamine], the “% Cross-reactivity” value in data set [1] (Table 2) worked out at 170.8%. Moreover, the “IC50” value in data set [1] (setting [4]) came to 0.096 ng/mL.

Regarding `COc1cc([N+](=O)[O-])c(OC)cc1CCNCc1ccccc1O` [Compound 25N-NBOH], the “% Cross-reactivity” value in data set [1] (Table 2) is recorded as 26.7%. For the same compound, the “IC50” value in data set [1] (setting [4]) came to 0.615 ng/mL (≈ 1.85 nM).

Take `COc1cc(CCN)c(OC)cc1I` [Compound 2C-I]: in data set [1] (Table 4, samples @ 100 ng/ml), the B/Bo turned out to be 88.8, the IC50 is given as over 100 and the “% CR” value was under 0.16%. Also, the dose entry in data set [2] is given as “around 20 milligrams”.

With `COc1cc([N+](=O)[O-])c(OC)cc1CCNCc1ccccc1OC` [25N-NBOMe•HCl, N-(2-Methoxybenzyl)-2-(2,5-dimethoxy-4-nitrophenyl)ethylamine], in data set [1] (Table 2), the “% Cross-reactivity” value is listed as 115.5%. In addition, in data set [1] (setting [4]), the “IC50” value stood at 0.142 ng/mL.

Consider `CCCc1cc(OC)c(CCNCc2ccccc2OC)cc1OC` [25P-NBOMe•HCl], for which the “% Cross-reactivity” value in data set [1] (Table 2) amounted to 111.6%. In data set [1] (setting [4]), the “IC50” value is 0.147 ng/mL.

As for `CCSc1cc(OC)c(CCNCc2ccccc2OC)cc1OC.Cl` [25T2-NBOMe•HCl], the “% Cross-reactivity” value in data set [1] (Table 2) was 120.6%. Moreover, the “IC50” value in data set [1] (setting [4]) turned out to be 0.136 ng/mL.

As for `COc1cc(CC(C)N)c(OC)cc1Br` (stereo not shown) [DOB, 2,5-Dimethoxy-4-bromoamphetamine], in data set [1] (Table 4, samples @ 100 ng/ml), the B/Bo worked out at 91.8, the IC50 was over 100 and the “% CR” value is given as under 0.16%.

For the compound `COc1cc(CCNCc2ccccc2O)c(OC)cc1N` [25(NH2)-NBOH], in data set [1] (Table 2), the “% Cross-reactivity” value is recorded as 18.5%. In addition, the “IC50” value in data set [1] (setting [4]) is 0.887 ng/mL (≈ 2.93 nM).

As for `COc1cc(CCNCc2ccccc2OC)c(OC)cc1I` [Compound 25I-NBOMe, 2-(4-Iodo-2,5-dimethoxyphenyl)-N-[(2-methoxyphenyl)methyl] ethanamine], the dose result in data set [2] is “less than one milligram”. Also, the Clinical features result in data set [3] is “tachycardia, hypertension, agitation, aggression, visual and auditory hallucinations, seizures, hyperplexia, clonus, elevated white cell count, elevated creatine kinase, metabolic acidosis and acute kidney injury”.

Regarding `CCc1cc(OC)c(CCNCc2ccccc2OC)cc1OC` [25E-NBOMe•HCl], in data set [1] (Table 2), the “% Cross-reactivity” value is 126.2%. The “IC50” value in data set [1] (setting [4]) was 0.13 ng/mL.

For the compound `COc1ccccc1CNCCc1cc(OC)c(OC)c(OC)c1.Cl` [Mescaline-NBOMe•HCl], the “% Cross-reactivity” value in data set [1] (Table 2) came out at 164%. Moreover, the “IC50” value in data set [1] (setting [4]) amounted to 0.1 ng/mL.

The record behind these values is patent US9720005B2, “Immunoassay for compounds of the NBOMe family” (Randox Laboratories Limited, priority 2014, dated 2017).
